Values quoted from earlier work in PMC9851200, “Multiparameter phenotypic screening for endogenous TFEB and TFE3 translocation identifies novel chemical series modulating lysosome function” (Autophagy, 2022).

Columns and labels:
Parameters in all cases: method as in original PKIS2 published data
[1] = target: kinases (KINOMEscan panel) (Homo sapiens, UniProt P08631); conditions: kinase HCK; Published KINOMEscan; ref original PKIS2 published data; cited from earlier work
[2] = target: T1, kinases (KINOMEscan panel) (Homo sapiens, UniProt Q9UF33); conditions: kinase EPHA6; Published KINOMEscan; ref original PKIS2 published data; cited from earlier work
T1 sequence (Q9UF33 23-1036): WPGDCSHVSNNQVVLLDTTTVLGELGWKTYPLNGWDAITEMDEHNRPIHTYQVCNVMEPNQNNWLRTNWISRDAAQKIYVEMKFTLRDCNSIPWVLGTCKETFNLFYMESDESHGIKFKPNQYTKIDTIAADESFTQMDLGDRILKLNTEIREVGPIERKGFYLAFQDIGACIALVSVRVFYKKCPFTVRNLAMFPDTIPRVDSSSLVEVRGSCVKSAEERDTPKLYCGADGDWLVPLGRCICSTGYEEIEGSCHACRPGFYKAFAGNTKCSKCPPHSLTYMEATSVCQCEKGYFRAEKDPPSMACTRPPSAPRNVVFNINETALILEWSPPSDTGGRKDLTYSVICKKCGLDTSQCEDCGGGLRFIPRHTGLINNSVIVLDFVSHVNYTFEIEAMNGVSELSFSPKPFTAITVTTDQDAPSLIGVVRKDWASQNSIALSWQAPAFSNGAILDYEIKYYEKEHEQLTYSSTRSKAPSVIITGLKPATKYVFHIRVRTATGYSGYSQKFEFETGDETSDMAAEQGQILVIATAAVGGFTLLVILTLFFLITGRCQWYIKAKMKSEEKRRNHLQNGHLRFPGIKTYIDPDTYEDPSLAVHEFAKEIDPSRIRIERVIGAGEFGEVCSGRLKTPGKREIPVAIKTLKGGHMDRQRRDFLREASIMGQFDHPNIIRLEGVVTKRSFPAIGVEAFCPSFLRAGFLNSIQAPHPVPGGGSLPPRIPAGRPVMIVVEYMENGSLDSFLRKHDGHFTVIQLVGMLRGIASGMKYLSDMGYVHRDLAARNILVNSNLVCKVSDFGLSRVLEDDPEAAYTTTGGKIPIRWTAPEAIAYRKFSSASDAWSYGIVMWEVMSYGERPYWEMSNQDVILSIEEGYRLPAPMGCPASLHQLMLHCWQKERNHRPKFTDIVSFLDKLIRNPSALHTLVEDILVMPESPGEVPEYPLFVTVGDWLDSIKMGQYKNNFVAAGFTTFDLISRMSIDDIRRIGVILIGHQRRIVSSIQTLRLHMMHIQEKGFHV

[3] = target: kinases (KINOMEscan panel) (Homo sapiens, UniProt P68400); conditions: CSNK2A1; Published KINOMEscan; ref original PKIS2 published data; cited from earlier work
[4] = target: kinases (KINOMEscan panel) (Homo sapiens, UniProt Q7KZI7); conditions: MARK2; Published KINOMEscan; ref original PKIS2 published data; cited from earlier work
[5] = target: T2, kinases (KINOMEscan panel) (Homo sapiens, UniProt Q9NRM7); conditions: Published KINOMEscan; ref original PKIS2 published data; cited from earlier work
T2 sequence (Q9NRM7 1-1088): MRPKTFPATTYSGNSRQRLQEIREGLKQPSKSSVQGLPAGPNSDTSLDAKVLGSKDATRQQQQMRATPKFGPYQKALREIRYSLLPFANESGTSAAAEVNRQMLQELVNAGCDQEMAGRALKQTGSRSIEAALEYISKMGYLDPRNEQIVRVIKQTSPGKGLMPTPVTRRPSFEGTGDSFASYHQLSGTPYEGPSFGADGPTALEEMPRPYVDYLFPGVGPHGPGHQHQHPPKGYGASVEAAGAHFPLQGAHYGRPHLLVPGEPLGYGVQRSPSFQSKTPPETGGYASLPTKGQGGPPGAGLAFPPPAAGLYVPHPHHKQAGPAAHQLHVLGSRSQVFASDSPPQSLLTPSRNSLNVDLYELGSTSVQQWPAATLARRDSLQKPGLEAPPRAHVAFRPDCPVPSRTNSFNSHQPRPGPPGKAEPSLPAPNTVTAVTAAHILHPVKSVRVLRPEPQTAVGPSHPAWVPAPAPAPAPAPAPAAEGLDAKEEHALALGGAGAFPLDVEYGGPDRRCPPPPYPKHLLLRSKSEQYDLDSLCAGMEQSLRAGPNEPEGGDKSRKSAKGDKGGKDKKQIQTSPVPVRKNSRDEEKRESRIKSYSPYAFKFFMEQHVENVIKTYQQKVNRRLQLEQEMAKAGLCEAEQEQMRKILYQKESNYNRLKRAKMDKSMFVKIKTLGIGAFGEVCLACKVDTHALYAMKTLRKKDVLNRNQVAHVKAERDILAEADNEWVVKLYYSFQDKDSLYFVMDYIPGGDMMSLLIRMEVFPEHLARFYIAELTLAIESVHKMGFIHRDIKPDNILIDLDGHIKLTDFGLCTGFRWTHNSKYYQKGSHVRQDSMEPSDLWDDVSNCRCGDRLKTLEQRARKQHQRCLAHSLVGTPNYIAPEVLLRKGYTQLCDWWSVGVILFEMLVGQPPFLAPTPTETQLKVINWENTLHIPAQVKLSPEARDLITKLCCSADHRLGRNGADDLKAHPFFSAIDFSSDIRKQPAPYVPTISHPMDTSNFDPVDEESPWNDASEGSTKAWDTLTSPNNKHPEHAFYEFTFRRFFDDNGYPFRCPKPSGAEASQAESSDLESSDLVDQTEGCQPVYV

[6] = target: kinases (KINOMEscan panel) (Homo sapiens, UniProt P43405); conditions: SYK; Published KINOMEscan; ref original PKIS2 published data; cited from earlier work

Sequence of kinases (KINOMEscan panel) (Homo sapiens, UniProt P08631) (P08631 whole entry): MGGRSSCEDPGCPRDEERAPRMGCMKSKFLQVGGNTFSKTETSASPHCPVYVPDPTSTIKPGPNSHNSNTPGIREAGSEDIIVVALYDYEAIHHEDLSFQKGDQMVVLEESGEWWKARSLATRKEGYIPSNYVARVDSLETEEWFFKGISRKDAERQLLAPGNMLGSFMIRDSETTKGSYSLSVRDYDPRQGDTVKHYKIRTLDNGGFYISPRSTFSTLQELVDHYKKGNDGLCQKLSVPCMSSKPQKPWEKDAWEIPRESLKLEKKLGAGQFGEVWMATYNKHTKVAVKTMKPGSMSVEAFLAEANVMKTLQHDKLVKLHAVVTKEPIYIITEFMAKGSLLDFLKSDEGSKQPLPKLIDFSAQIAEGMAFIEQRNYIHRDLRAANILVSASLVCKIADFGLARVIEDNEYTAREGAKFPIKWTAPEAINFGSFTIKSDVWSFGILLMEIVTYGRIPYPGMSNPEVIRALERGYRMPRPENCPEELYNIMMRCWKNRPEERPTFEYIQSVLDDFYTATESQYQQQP
Sequence of kinases (KINOMEscan panel) (Homo sapiens, UniProt P68400) (P68400 whole entry): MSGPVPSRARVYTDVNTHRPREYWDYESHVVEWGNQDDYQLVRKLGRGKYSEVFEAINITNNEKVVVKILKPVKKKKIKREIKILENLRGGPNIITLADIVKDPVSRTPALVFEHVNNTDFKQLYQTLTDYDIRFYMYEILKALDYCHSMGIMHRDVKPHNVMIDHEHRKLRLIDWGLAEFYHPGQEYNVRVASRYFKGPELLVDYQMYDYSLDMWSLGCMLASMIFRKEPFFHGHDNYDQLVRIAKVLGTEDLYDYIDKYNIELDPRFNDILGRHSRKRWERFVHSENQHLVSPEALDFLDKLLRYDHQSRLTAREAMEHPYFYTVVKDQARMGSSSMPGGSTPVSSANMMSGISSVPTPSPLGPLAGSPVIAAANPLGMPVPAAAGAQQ
Sequence of kinases (KINOMEscan panel) (Homo sapiens, UniProt Q7KZI7) (Q7KZI7 whole entry): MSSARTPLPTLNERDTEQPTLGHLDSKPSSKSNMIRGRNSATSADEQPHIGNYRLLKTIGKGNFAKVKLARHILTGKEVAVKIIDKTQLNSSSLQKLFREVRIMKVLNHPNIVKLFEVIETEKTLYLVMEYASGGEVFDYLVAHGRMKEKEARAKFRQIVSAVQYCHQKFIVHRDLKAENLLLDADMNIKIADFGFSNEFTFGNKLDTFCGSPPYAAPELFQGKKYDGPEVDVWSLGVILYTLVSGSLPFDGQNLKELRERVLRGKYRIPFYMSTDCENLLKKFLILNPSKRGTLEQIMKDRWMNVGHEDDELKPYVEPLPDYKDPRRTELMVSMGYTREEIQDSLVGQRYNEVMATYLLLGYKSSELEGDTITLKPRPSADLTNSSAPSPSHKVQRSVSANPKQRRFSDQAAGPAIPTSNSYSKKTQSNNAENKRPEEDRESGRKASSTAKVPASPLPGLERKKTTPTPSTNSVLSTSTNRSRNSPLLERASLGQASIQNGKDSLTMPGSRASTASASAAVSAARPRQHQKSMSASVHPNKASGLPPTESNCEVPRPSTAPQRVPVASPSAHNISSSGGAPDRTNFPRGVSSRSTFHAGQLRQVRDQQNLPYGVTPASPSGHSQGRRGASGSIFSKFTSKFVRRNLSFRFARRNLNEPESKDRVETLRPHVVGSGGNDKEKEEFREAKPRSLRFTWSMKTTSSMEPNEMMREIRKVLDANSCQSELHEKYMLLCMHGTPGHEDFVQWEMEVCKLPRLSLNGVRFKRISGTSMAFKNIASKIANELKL

## Cc1cccc(-c2nc(Nc3ccncc3)c3ccccc3n2)n1 [NK215]
[1]
  KINOMEscan HCK: 11
[2]
  KINOMEscan EPHA6: 0
[3]
  KINOMEscan CSNK2A1: 0
[4]
  KINOMEscan MARK2: 0
[5]
  KINOMEscan LATS2: 0
[6]
  KINOMEscan SYK: 14
